This note sets out measurements from article PMC7108740, “Exploring the molecular structures that confer ligand selectivity for galanin type II and III receptors” (PLoS ONE, 2020).

The target of the test is T1, GALR3 septuple (Homo sapiens, UniProt O60755, A190V/A191F/C272L/G192S/L100F/Y103F/Y107H).
T1 construct: expressed in transfected cells; host or cells: HEK293 cells stably expressing pGlosensor-22F cAMP plasmid
T1 sequence (O60755 1-368 L100F/Y103F/Y107H/A190V/A191F/G192S/C272L): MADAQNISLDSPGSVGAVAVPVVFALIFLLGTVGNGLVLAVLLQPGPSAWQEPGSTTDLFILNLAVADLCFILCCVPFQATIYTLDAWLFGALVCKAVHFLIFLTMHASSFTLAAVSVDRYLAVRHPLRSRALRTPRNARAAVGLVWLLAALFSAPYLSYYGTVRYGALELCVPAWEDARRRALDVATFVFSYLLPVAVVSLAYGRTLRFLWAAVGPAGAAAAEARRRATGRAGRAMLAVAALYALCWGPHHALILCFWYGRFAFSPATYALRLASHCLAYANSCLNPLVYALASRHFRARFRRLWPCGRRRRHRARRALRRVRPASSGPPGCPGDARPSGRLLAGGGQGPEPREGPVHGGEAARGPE
Description: SRE-luc luciferase assay, GALR3 septuple mutant. The class given is cell-based. The conditions noted are these: SRE-luc in HEK293 Gqi cells, ligand 6 h, mean ± SE, SEM. The text has this:
For domain swapping between GALR2 and GALR3, individual cDNA fragments of interest were amplified by polymerase chain reaction (PCR) with Pfu polymerase (ELPIS Biotech, Daejeon, Korea) and two specific primers, one corresponding to the 5' or 3' end of the GALR2 or GALR3 cDNA and the other to the region of overlap between the two receptors. The two resulting fragments, one from GALR2 and the other from GALR3, were subjected to a second round of PCR to generate the chimeric cDNAs. To construct single, double-, triple-, pentuple-, hextuple-, and septuple-mutant receptors, amino acids of GALR3 were substituted for the amino acids at the corresponding positions in GALR2 using PCR-based site-directed mutagenesis. […]
For luciferase assays, HEK293 Gqi cells were seeded on 48-well plates at a density of 2.5 × 10^4 cells/well one day before transfection. […] The luciferase activity in 50 μl cell extract was determined using a luciferase assay system according to the standard protocol for the Synergy 2 Multi-Mode Microplate Reader (BioTek, Winooski, VT, USA).
Data analysis was performed by non-linear regression with a sigmoidal dose-response curve. The concentrations of agonists that induced half-maximal stimulation (EC50) were calculated using the GraphPad PRISM5 software (GraphPad software, Inc., San Diego, CA). […]

The structures appear in SMILES notation.

For `CSCC[C@H](NC(=O)[C@H](C)NC(=O)[C@H](CCC(N)=O)NC(=O)[C@@H]1CCCN1C(=O)[C@@H](NC(=O)[C@H](Cc1c[nH]c2ccccc12)NC(=O)[C@@H](N)CC(N)=O)[C@@H](C)O)C(=O)N[C@@H](CC(C)C)C(=O)N[C@@H](Cc1ccc(O)cc1)C(=O)N[C@@H](CC(C)C)C(=O)N[C@@H](CCCCN)C(=O)NCC(=O)N[C@@H](C)C(=O)N[C@@H](CCC(N)=O)C(N)=O` [SPX, reference compound], the EC50 (as a rule, the midpoint of the concentration-response curve) is 4.07 ± 1.12 nM.
